Read-outs that look alike come from different tables or passages of the source.
Key:
[1] = target: T1, SERT (Homo sapiens, UniProt P31645); test: SERT Inhibition Assay of Example A1 (Neurotransmitter Transporter fluorescence uptake, stable 5HTT cells); assay type: cell-based
T1 construct: expressed in transfected cells
Method: SERT inhibition was measured using a Neruotransmitter Transportation Fluorescence assay. Briefly, stable 5HTT cells were prepared in a 384 microwell plate. Compounds were prepared by in assay buffer (20 mM HEPES, 0.1% BSA). The compounds were added to the plated cells and incubated for 30 minutes at 37° C. 25 μL of dye solution (Molecular Devices Neurotransmitter Transporter Uptake Assay Kit) is added per well and incubated for 30 minutes at 37° C. The plates are then read on a plate reader.

[2] = target: T2, PDE4A1A (Homo sapiens, UniProt P27815); test: Recombinant PDE4 Inhibition Assay of Example A2; assay type: biochemical; details: recombinant enzyme
T2 construct: purchased BPSBioscience
T2 sequence (P27815 1-647 isoform P27815-4): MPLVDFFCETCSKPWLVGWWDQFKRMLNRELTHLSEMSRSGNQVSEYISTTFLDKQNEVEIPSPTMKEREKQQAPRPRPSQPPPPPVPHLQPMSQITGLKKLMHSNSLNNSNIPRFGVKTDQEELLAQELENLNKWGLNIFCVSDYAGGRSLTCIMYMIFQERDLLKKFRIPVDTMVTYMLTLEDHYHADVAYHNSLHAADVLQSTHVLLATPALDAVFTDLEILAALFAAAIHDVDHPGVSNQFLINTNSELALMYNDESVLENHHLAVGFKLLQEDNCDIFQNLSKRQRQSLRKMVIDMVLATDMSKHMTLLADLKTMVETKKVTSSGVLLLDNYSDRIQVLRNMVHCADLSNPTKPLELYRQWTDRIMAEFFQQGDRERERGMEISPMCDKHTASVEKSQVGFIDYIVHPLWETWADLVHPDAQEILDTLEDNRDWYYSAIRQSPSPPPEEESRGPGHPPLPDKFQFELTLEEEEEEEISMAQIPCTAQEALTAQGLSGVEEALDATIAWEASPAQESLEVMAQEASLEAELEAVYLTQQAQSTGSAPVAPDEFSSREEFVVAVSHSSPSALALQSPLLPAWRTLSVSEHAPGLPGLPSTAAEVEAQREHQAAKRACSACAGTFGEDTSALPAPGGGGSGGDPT
Method: (§1) Recombinant PDE assay inhibition can be measured according to the BPSBioscience PDE4 assay kit, as described below.
(§2) 1) Dilute 20 µM FAM-Cyclic-3′,5′-AMP stock 100-fold with PDE buffer to make a 200 nM solution. Make only sufficient quantity needed for the assay; store remaining […] stock solution in aliquots at −20° C. 2) Add 25 μl of FAM-Cyclic-3′,5′-AMP (200 nM) to each well designated “Positive Control”, “Test Inhibitor”, and “Substrate Control”. 3) Add 20 μl of PDE assay buffer to each well designated “Substrate Control” and 45 μl of PDE assay buffer to each well designated “Blank”. 4) Add 5 μl of inhibitor solution to each well designated “Test Inhibitor”. For the wells labeled “Positive Control”, “Substrate Control” and “Blank”, add 5 μl of the same solution without inhibitor (inhibitor buffer). 5) Thaw PDE on ice. Upon first thaw, briefly spin tube containing enzyme to recover the full contents of the tube. 6) Dilute PDE4 in PDE buffer to 7.5 pg/μl (0.15 ng/reaction)*. Initiate reaction by adding 20 μl of PDE4 (7.5 pg/μl) to the wells designated “Positive Control” and “Test Inhibitor.” 7) Incubate at room temperature for 1 hour.
(§3) 1) Mix binding agent thoroughly and dilute binding agent 1:100 with binding agent diluent. 2) Add 100 μl diluted binding agent to each microwell. Incubate at room temperature for 1 hour with slow shaking. 3) Read the fluorescent polarization of the sample in a microtiter-plate reader equipped for the measurement of fluorescence polarization, capable of excitation at wavelengths ranging from 485±5 nm and detection of emitted light ranging from 528±10 nm. Blank value is subtracted from all other values.

[3] = target: T3, PDE4B2 (Homo sapiens, UniProt Q07343); test: Recombinant PDE4 Inhibition Assay of Example A2; assay type: biochemical; details: recombinant enzyme
T3 construct: purchased BPSBioscience
T3 sequence (Q07343 1-564 isoform Q07343-2): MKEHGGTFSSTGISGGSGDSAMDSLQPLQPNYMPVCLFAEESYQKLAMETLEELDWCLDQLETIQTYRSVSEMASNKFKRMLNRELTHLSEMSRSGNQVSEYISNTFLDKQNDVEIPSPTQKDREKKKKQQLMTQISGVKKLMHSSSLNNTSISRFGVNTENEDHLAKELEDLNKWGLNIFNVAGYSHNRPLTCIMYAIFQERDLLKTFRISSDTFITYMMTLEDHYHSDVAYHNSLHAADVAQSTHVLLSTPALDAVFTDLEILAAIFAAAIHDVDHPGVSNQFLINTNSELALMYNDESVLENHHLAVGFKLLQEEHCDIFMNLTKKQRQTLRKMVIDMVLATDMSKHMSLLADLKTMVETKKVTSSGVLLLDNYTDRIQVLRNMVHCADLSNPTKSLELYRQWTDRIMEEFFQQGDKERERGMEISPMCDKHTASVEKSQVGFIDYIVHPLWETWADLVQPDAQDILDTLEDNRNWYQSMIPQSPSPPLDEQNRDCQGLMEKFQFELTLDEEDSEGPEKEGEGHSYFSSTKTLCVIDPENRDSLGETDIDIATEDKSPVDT
Method: as §1, §2, §3

[4] = target: T4, PDE4C1 (Homo sapiens, UniProt Q08493); test: Recombinant PDE4 Inhibition Assay of Example A2; assay type: biochemical; details: recombinant enzyme
T4 construct: purchased BPSBioscience
T4 sequence (Q08493 whole entry): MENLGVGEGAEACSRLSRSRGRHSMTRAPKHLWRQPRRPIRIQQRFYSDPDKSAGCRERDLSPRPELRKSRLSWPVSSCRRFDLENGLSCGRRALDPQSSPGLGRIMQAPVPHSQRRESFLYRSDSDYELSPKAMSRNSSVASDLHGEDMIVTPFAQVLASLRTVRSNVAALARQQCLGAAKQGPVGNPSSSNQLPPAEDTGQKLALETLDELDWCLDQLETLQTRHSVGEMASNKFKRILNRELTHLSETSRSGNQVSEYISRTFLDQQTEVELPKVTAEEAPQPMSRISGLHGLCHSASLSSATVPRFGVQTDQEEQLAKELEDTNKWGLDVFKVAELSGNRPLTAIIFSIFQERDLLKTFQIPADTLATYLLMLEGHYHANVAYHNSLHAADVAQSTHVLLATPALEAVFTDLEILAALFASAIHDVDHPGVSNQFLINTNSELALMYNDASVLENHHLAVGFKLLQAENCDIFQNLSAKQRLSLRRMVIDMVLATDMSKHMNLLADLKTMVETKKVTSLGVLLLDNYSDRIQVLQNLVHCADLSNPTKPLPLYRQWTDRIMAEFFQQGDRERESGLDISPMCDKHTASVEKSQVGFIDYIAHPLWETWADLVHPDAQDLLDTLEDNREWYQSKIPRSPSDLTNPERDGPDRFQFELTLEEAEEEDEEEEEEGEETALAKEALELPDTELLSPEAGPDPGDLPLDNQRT
Method: as §1, §2, §3

[5] = target: T5, PDE4D2 (Homo sapiens, UniProt Q08499); test: Recombinant PDE4 Inhibition Assay of Example A2; assay type: biochemical; details: recombinant enzyme
T5 construct: purchased BPSBioscience
T5 sequence (Q08499 303-809): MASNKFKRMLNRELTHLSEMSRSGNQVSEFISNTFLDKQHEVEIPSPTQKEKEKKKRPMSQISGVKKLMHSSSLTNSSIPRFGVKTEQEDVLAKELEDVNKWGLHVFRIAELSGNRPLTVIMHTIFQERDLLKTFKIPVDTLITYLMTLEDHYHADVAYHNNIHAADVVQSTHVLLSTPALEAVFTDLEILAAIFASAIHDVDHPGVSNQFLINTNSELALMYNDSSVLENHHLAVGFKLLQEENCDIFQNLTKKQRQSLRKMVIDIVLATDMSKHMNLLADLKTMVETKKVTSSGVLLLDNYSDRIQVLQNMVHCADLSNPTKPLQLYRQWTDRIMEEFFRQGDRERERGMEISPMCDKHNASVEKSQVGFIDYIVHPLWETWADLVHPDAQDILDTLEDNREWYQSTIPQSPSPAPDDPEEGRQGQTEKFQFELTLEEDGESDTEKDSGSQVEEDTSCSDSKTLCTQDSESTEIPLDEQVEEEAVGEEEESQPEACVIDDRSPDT
Method: as §1, §2, §3

[6] = cited from earlier work
[7] = target: 5-HT transporter (“SERT”) (Homo sapiens, UniProt P31645); details: Hill coefficient of binding curve, Harvey et al., 2011; cited from earlier work
5-HT transporter (“SERT”), sequence (P31645 whole entry, species assumed): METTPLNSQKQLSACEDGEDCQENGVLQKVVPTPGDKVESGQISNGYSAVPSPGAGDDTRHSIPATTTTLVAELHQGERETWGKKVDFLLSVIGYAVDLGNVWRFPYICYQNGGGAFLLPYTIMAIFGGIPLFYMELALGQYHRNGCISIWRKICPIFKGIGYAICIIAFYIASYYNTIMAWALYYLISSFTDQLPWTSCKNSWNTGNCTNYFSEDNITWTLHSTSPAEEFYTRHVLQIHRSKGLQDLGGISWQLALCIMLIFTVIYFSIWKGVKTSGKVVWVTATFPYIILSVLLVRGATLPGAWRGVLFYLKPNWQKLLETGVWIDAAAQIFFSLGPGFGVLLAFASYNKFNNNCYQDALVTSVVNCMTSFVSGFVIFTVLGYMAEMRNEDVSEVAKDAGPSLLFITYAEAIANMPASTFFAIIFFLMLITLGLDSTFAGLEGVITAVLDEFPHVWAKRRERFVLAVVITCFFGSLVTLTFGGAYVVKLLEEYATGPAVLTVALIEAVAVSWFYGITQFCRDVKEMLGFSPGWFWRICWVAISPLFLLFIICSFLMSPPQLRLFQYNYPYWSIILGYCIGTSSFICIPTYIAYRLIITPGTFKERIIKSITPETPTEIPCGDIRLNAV

[8] = class symbols, read-out: SERT IC50

T1 sequence (P31645 whole entry, species assumed): as above

For COc1cc(C23C=CC(=O)CC2N(C)CC3)cc(OC)c1OC (centres unmarked) [Compound 144, 1-methyl-3a-(3,4,5-trimethoxyphenyl)-2,3,7,7a-tetrahydroindol-6-one], the IC50 [1, 8] was over 1 µM, the IC50 ([1]; read-out: SERT inhibition IC50) was over 1 µM and the IC50 [2] was over 10 µM. It also gave an IC50 [3] of over 10 µM, an IC50 [4] of over 10 µM and an IC50 [5] of over 10 µM.
In the case of COc1ccc([C@@]23CCC(=O)C[C@@H]2N(C)CC3)cc1OC [(−) mesembrine], the half-life in plasma [6] is listed as “less than 2 hours”.
Compound COc1cc([C@@]23C=CC(=O)C[C@@H]2N(C)CC3)cc(F)c1OC [Compound 133, (3aR,7aS)-3a-(3-fluoro-4,5-dimethoxy-phenyl)-1-methyl-2,3,7,7a-tetrahydroindol-6-one] has an IC50 [1, 8] of 0.1 to 0.5 µM, an IC50 ([1]; read-out: SERT inhibition IC50) of under 1 µM and an IC50 [2] of 1 to 10 µM. For the same compound, the IC50 [3] was 1 to 10 µM, the IC50 [4] was over 10 µM and the IC50 [5] was over 10 µM.
In the case of COc1ccc([C@@]23C=CC(=O)C[C@@H]2N(C)CC3)cc1OC [Mesembrenone], the “5-HT transporter (“SERT”) nH” value [7] is given as 1.0.
Work on COc1cc([C@@]23C=CC(=O)CC2N(C)CC3)cc(Br)c1OC (stereo partly drawn) [Compound 130, (3aR)-3a-(3-bromo-4,5-dimethoxy-phenyl)-1-methyl-2,3,7,7a-tetrahydroindol-6-one] yielded an IC50 [1, 8] of 0.5 to 1 µM, an IC50 ([1]; read-out: SERT inhibition IC50) of under 1 µM and an IC50 [2] of over 10 µM. The IC50 [3] was over 10 µM, the IC50 [4] was over 10 µM and the IC50 [5] was over 10 µM.
COc1cc([C@@]23C=CC(=O)C[C@@H]2N(C)CC3)cc(I)c1OC [Compound 132, (3aR,7aS)-3a-(3-iodo-4,5-dimethoxy-phenyl)-1-methyl-2,3,7,7a-tetrahydroindol-6-one] gave an IC50 [1, 8] of 0.1 to 0.5 µM, an IC50 ([1]; read-out: SERT inhibition IC50) of under 1 µM and an IC50 [2] of over 10 µM. For the same compound, the IC50 [3] was over 10 µM, the IC50 [4] was over 10 µM and the IC50 [5] was over 10 µM.
